From patent US12227500B2, “Substituted pyrrolo[2,3-b]pyridines for suppressing toxic endoplasmic reticulum stress” (THE TRUSTEES OF COLUMBIA UNIVERSITY IN THE CITY OF NEW YORK, priority 2018, dated 2025)
Read-outs that look alike come from different tables or passages of the source.

Experiments:
Test in all cases: Radiolabeled ATP kinase assay, panel of 60 kinases (Table S5)
Assay type in all cases: biochemical
[1] = target: T1, panel of 60 human kinases (Homo sapiens, UniProt O94806); conditions: PKCnu/PRKD3; 0.1 μM; 10 μM ATP; read-out: % Enzyme Activity (relative to DSMO controls)
T1 construct: purchased Reaction Biology Corp
T1 sequence (O94806 1-890): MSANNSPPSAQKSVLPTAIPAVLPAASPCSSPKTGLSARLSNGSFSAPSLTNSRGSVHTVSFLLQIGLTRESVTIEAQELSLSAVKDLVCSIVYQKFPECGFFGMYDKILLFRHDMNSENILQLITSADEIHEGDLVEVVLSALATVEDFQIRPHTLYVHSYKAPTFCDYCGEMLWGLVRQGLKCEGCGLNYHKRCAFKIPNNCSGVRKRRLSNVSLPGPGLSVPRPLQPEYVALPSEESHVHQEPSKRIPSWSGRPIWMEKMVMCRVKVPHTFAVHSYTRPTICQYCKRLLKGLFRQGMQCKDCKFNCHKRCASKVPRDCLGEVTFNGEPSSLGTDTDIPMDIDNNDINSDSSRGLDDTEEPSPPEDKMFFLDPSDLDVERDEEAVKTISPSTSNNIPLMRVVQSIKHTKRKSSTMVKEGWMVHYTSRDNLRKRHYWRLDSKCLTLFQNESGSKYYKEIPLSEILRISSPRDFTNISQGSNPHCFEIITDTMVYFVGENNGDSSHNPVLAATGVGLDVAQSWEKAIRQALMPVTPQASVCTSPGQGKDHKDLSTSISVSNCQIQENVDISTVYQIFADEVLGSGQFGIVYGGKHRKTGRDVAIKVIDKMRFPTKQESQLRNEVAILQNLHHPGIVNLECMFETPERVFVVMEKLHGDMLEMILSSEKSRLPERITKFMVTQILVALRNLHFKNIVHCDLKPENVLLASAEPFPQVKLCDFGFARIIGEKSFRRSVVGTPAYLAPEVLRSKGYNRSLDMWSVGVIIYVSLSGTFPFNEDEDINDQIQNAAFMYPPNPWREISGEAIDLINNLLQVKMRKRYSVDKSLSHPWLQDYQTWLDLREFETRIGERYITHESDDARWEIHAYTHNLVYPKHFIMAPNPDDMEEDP
In short: (§1)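 Cell-free radiolabeled-ATP kinase assays across a panel of 60 kinases; each compound tested at 0.1 μM and 0.5 μM for inhibition.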

[2] = target: T2, panel of 60 human kinases (Homo sapiens, UniProt O94921); conditions: CDK14/cyclin Y (PFTK1); 0.1 μM; 10 μM ATP; read-out: % Enzyme Activity (relative to DSMO controls)
T2 construct: purchased Reaction Biology Corp
In short: as §1

[3] = target: T3, panel of 60 human kinases (Homo sapiens, UniProt O95819); conditions: HGK/MAP4K4; 0.1 μM; 10 μM ATP; read-out: % Enzyme Activity (relative to DSMO controls)
T3 construct: purchased Reaction Biology Corp
In short: as §1

[4] = target: T4, panel of 60 human kinases (Homo sapiens, UniProt P11802); conditions: 0.1 μM, 10 μM ATP, read-out: % Enzyme Activity (relative to DSMO controls)
T4 construct: purchased Reaction Biology Corp
In short: as §1

[5] = target: T5, panel of 60 human kinases (Homo sapiens, UniProt P22607); conditions: FGFR3; 0.1 μM; 10 μM ATP; read-out: % Enzyme Activity (relative to DSMO controls)
T5 construct: purchased Reaction Biology Corp
In short: as §1

[6] = target: T6, panel of 60 human kinases (Homo sapiens, UniProt P24941); conditions: 0.1 μM, 10 μM ATP, read-out: % Enzyme Activity (relative to DSMO controls)
T6 construct: purchased Reaction Biology Corp
In short: as §1

[7] = target: T7, panel of 60 human kinases (Homo sapiens, UniProt P50750); conditions: 0.1 μM, 10 μM ATP, read-out: % Enzyme Activity (relative to DSMO controls)
T7 construct: purchased Reaction Biology Corp
In short: as §1

[8] = target: T8, panel of 60 human kinases (Homo sapiens, UniProt Q92918); conditions: HPK1/MAP4K1; 0.1 μM; 10 μM ATP; read-out: % Enzyme Activity (relative to DSMO controls)
T8 construct: purchased Reaction Biology Corp
In short: as §1

[9] = target: T9, panel of 60 human kinases (Homo sapiens, UniProt Q96GD4); conditions: Aurora B; 0.1 μM; 10 μM ATP; read-out: % Enzyme Activity (relative to DSMO controls)
T9 construct: purchased Reaction Biology Corp
In short: as §1

[10] = target: T10, panel of 60 human kinases (Homo sapiens, UniProt Q9UKE5); conditions: TNIK; 0.1 μM; 10 μM ATP; read-out: % Enzyme Activity (relative to DSMO controls)
T10 construct: purchased Reaction Biology Corp
In short: as §1

[11] = target: T11, panel of 60 human kinases (Homo sapiens, UniProt Q9UM73); conditions: ALK; 0.1 μM; 10 μM ATP; read-out: % Enzyme Activity (relative to DSMO controls)
T11 construct: purchased Reaction Biology Corp
In short: as §1

[12] = target: T12, panel of 60 human kinases (Homo sapiens, UniProt Q9UQB9); conditions: Aurora C; 0.1 μM; 10 μM ATP; read-out: % Enzyme Activity (relative to DSMO controls)
T12 construct: purchased Reaction Biology Corp
T12 sequence (Q9UQB9 1-309): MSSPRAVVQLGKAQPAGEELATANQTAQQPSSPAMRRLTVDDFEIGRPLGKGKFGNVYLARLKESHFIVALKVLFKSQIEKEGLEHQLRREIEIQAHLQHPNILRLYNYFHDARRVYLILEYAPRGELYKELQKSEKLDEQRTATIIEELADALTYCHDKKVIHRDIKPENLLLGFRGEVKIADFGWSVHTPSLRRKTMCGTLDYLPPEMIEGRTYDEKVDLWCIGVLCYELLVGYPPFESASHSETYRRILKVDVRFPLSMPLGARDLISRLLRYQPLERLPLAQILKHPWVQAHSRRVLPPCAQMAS
In short: as §1

T2 sequence (O94921 whole entry): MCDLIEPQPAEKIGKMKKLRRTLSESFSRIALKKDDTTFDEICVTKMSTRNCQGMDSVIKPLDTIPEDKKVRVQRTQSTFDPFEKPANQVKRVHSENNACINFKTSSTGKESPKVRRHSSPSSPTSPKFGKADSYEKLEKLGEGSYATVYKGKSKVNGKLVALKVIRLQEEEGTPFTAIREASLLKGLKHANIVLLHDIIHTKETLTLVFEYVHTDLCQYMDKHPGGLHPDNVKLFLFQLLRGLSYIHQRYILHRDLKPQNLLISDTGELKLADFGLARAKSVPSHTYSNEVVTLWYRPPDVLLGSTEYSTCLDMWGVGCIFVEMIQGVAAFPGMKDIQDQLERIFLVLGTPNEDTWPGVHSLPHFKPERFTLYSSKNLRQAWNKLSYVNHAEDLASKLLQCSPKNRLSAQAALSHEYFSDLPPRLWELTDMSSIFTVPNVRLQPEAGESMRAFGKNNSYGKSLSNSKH
T5 sequence (P22607 23-806): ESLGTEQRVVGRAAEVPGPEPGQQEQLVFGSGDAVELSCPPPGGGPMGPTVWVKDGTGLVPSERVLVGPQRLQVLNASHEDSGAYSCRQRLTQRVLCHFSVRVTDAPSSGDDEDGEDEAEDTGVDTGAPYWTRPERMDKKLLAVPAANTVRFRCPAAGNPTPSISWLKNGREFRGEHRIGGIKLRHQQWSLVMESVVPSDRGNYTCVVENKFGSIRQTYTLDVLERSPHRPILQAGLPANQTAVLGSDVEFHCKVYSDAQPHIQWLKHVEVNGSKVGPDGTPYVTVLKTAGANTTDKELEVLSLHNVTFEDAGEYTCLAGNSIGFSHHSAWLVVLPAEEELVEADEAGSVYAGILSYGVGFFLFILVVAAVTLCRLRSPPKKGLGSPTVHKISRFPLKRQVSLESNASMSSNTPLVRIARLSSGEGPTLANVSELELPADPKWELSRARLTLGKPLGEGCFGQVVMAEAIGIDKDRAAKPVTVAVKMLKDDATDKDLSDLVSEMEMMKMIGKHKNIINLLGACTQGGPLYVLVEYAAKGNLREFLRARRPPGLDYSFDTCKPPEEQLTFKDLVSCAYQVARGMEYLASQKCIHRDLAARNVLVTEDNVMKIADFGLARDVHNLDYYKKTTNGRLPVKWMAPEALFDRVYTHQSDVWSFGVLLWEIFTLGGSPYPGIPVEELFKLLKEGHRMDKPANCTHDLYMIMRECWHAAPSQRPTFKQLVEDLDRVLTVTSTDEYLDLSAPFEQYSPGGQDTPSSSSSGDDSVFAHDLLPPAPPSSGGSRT
T9 sequence (Q96GD4 whole entry): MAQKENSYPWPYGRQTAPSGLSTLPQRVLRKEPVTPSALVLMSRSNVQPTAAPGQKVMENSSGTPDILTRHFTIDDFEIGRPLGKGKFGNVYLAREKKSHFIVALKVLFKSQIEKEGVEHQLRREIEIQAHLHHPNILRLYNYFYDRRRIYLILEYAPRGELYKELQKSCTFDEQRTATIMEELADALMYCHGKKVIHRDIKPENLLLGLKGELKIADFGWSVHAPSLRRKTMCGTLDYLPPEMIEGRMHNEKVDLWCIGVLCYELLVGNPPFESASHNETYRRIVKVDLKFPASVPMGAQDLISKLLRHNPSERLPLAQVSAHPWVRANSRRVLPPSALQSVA
T4 sequence (P11802 whole entry): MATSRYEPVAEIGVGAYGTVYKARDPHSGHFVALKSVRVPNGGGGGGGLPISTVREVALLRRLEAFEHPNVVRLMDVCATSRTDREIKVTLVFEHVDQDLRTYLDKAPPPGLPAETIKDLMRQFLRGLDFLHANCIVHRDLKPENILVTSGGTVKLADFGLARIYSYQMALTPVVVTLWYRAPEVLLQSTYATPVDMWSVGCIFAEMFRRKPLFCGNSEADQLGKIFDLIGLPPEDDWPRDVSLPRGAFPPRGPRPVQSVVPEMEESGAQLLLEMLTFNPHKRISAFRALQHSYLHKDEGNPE
T7 sequence (P50750 whole entry): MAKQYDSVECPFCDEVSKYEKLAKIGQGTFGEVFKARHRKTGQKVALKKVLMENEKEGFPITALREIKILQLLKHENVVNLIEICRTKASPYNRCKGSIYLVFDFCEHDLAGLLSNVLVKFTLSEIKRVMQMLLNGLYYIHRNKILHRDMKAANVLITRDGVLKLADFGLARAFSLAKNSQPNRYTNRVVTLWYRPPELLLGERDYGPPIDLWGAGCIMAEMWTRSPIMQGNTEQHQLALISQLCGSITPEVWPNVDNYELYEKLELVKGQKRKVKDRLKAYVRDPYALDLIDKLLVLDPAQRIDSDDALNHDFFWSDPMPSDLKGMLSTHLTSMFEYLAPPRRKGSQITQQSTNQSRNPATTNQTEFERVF
T11 sequence (Q9UM73 19-1620): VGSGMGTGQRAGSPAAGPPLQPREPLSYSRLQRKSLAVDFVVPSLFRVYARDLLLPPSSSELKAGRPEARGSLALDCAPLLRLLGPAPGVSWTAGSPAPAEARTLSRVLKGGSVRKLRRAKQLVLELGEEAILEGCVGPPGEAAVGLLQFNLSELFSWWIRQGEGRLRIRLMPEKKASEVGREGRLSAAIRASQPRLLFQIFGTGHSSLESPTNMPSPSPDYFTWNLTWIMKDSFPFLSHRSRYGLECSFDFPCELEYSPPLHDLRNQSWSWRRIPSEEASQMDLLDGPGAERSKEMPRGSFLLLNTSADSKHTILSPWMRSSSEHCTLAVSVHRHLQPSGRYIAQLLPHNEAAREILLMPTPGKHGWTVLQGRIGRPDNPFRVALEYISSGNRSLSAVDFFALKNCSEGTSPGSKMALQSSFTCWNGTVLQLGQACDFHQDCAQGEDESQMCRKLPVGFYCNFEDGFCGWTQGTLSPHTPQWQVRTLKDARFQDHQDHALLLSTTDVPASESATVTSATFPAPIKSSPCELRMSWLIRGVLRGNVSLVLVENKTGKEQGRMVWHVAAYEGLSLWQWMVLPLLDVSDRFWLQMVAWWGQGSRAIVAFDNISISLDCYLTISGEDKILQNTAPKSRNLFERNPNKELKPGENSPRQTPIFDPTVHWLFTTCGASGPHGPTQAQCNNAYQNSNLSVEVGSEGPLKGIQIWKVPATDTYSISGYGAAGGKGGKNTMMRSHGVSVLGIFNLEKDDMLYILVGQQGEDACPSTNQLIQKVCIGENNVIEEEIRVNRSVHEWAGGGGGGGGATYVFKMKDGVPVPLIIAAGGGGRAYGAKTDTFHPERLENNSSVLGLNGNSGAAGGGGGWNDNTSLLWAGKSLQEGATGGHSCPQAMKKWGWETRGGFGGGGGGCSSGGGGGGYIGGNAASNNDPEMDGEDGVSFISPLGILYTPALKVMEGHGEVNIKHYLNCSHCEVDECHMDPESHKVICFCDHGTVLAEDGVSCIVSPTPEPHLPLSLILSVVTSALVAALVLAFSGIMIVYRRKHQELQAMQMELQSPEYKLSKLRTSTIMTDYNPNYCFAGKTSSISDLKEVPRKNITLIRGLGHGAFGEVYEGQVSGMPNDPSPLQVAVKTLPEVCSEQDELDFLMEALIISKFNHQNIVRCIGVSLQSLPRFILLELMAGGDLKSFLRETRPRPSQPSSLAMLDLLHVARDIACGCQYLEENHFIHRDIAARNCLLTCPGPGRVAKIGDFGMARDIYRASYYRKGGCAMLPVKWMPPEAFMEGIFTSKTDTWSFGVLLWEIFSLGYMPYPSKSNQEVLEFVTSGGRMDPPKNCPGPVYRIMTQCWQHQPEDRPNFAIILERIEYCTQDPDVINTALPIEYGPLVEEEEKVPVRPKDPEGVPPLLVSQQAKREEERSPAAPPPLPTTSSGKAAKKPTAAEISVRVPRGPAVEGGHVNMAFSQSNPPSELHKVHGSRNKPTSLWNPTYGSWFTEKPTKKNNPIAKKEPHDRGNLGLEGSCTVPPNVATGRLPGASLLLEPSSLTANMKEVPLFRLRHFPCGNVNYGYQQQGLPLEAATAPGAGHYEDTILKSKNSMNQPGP
T8 sequence (Q92918 whole entry): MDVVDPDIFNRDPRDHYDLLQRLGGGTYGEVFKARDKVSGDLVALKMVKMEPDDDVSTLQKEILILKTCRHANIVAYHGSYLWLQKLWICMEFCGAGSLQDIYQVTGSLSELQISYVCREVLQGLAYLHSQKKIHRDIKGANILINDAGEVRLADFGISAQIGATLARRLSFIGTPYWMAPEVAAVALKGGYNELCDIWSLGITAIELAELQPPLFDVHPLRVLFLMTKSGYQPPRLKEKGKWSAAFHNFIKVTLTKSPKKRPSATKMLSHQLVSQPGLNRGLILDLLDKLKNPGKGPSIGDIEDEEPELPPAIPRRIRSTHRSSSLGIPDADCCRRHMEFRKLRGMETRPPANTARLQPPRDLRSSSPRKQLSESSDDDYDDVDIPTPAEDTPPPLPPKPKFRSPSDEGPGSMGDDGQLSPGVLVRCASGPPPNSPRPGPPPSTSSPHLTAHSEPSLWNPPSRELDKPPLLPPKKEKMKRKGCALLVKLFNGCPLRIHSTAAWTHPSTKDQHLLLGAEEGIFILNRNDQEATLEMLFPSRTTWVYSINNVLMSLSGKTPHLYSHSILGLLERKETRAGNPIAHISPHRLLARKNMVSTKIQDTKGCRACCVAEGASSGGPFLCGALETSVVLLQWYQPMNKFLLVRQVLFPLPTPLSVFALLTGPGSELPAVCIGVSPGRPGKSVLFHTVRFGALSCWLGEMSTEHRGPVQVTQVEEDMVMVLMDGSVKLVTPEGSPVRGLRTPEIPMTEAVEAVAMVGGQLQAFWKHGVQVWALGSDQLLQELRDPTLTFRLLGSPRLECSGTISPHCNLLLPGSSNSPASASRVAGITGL

Compound	remaining activity at 0.1 µM [1]	remaining activity at 0.1 µM [2]	remaining activity at 0.1 µM [3]	remaining activity at 0.1 µM ([4]; CDK4/cyclin D1)	remaining activity at 0.1 µM ([4]; CDK4/cyclin D3)	remaining activity at 0.1 µM [5]	remaining activity at 0.1 µM ([6]; CDK2/cyclin A1)	remaining activity at 0.1 µM ([6]; CDK2/cyclin A)	remaining activity at 0.1 µM ([6]; CDK2/cyclin E)	remaining activity at 0.1 µM ([6]; CDK2/cyclin O)	remaining activity at 0.1 µM ([7]; CDK9/cyclin K)	remaining activity at 0.1 µM ([7]; CDK9/cyclin T1)	remaining activity at 0.1 µM ([7]; CDK9/cyclin T2)	remaining activity at 0.1 µM [8]	remaining activity at 0.1 µM [9]	remaining activity at 0.1 µM [10]	remaining activity at 0.1 µM [11]	remaining activity at 0.1 µM [12]
CN1CCN(Cc2ccc(-c3cnc4[nH]cc(-c5ccc6c(c5)OCCO6)c4c3)cc2)CC1 [Compound 7d, 3-(2,3-Dihydrobenzo[b][1,4]dioxin-6-yl)-5-(4-((4-methylpiperazin-1-yl)methyl)phenyl)-1H-pyrrolo[2,3-b]pyridine]	6.42%	66.3%	2.05%	19.4%	26.7%	73.4%	38.8%	34.4%	89.1%	39%	95.8%	85.5%	93.7%	11.3%	83.5%	12.1%	73.8%	92.3%
CN1CCN(Cc2ccc(-c3cnc4[nH]cc(-c5ccncc5)c4c3)cc2)CC1 [Compound 7n, 5-(4-((4-Methylpiperazin-1-yl)methyl)phenyl)-3-(pyridin-4-yl)-1H-pyrrolo[2,3-b]pyridine]	42.3%	35%	35%	27.8%	37%	85.9%	60.2%	66%	54.3%	43.7%	83.4%	47.9%	38.8%	57.7%	86.9%	6.7%	94.1%	101%
CN1CCN(Cc2ccc(-c3cnc4[nH]cc(-c5ccoc5)c4c3)cc2)CC1 [Compound 7w, 3-(Furan-3-yl)-5-(4-((4-methylpiperazin-1-yl)methyl)phenyl)-1H-pyrrolo[2,3-b]pyridine]	32.8%	83.8%	2.85%	73.4%	72.2%	70.7%	88.6%	91.1%	92.4%	80.2%	97.8%	96.1%	65.6%	62.4%	89.9%	0.45%	89.7%	94.3%
